Columns and labels:
[1] = system: mice with bacterial shock induced by LPS; assay: LPS bacterial shock mice, survival, ANO, adenosine or inosine i.v. (Experiment 9); type: in vivo, BALB/c mice; details: LPS 18 mg/kg i.p., 127 mg/kg i.v. simultaneously
Description: An LPS specimen derived from E. coli (055:B5), commercialized by Sigma-Aldrich Corporation, St. Louis, Mo. USA, was dissolved in PBS and intraperitoneally administered to all the seven mice in the four groups at a dose of 18 mg/kg body weight. […] Seven mice in the remaining one group were intravenously administered with PBS as a control in a volume of 0.2 mL/head (Experiment group 1). For each group, the survival number of mice was confirmed up to 7 to 43 hours after administering LPS and the survival rate (%) of mice in each group was determined.

[2] = system: picryl chloride-sensitized mice; assay: Picryl chloride-sensitized mice atopic dermatitis, skin score (Experiment 16); type: in vivo, NC/Nga mice
Source text: (§1) The results are in Table 19 in parallel.

[3] = system: IL-4 production of spleen cells; assay: IL-4 production of spleen cells stimulated with anti-CD3 antibody, from gel-treated mice (Experiment 16); type: in vivo, NC/Nga mice
Description: (§2) On Friday of the 6th week of the induction (46th day after initiating the application), all the mice were sacrificed, followed by isolating their spleens and collecting spleen cells in usual manner. […] To each well 2 μg/mL of “Purified Mouse CD3ε Monoclonal Antibody”, a product name of an anti-CD3 antibody, commercialized by Cosmo Bio Co., Ltd., Tokyo, Japan, was added, and the cells were incubated at 37° C. for three days in a 5% v/v CO2 incubator, followed by assaying the levels of cytokines in each supernatant thereof.
as §1

[4] = system: IL-6 production of spleen cells; assay: IL-6 production of spleen cells stimulated with anti-CD3 antibody, from gel-treated mice (Experiment 16); type: in vivo, NC/Nga mice
Description: as §2, §1

[5] = system: IFN-γ production of spleen cells; assay: IFN-γ production of spleen cells stimulated with anti-CD3 antibody, from gel-treated mice (Experiment 16); type: in vivo, NC/Nga mice
Description: as §2, §1

[6] = system: IL-8 production from NHEK cells; assay: IL-8 production from NHEK cells irradiated with ultraviolet B (Experiment 17); type: cell-based, human; details: for IL-8: NHEK cells, stimulation by ultraviolet rays
Description: (§3) “CELLMATRIX TYPE IV”, a product name of collagen for tissue culture commercialized by Nitta Gelatin Inc., Osaka, Japan, which had been diluted with PBS(K-) by 10 times, was previously placed in “FALCON 35-3001”, a product name of 35 mm petri dish commercialized by Becton Dickinson and Company, NJ, USA, in an amount of 1 mL/plate, and then allowed to stand at ambient temperature for 10 min, followed by removing an excessive amount of CELLMATRIX, drying the petri dish in air, and washing it thrice with PBS(K-). […] The cells were cultured at 37° C. in a 5% v/v CO2 incubator. On the 2nd and 4th days after the cell inoculation, the medium was replaced with EpiLife medium free of EDGS (1 mL/plate). On the 5th day after the cell inoculation, the supernatant was removed, and the petri dish was washed twice by adding 1 mL/petri dish of Hanks' balanced salt solution (called “HBSS (−) buffer”, hereinafter). Further, 2 mL/petri dish of HBSS (−) buffer was added to the petri dish which was then placed in the position 15 cm apart from an ultraviolet ray light source and irradiated with 40 mJ/cm^2 of ultraviolet B radiation. […] As an ultraviolet ray light source, “NS-8F”, a light source for actual use commercialized by Sanwa Medical Co., Ltd., Okayama, Japan, equipped with an ultraviolet B radiation lamp was used, and the radiation dose was measured on “UVR-305/365D (II)”, an ultraviolet ray meter commercialized by Topcon Corporation, Tokyo, Japan. TNF-α was assayed by the same method as in Experiment 2. The remaining other cytokines were assayed with an IL-1α assay kit, commercialized by R & D Systems Inc., MN, USA, and an IL-8 assay kit commercialized by BioLegend, CA, USA.

[7] = system: TNF-α production from mouse intraperitoneal macrophages; assay: IC50 for TNF-α production from mouse macrophages, LPS + IFN-γ, nucleic acid derivatives (Experiment 19); type: cell-based; details: Mus musculus, Macrophage, 20 h, read-out: IC50 Concentration TNF-α
Source text: (§4) After completion of the culture, the supernatant in each well was collected and assayed for cytokines and prostaglandin E2 (called “PGE2”, hereinafter) with ELISA.

[8] = system: IL-6 production from mouse intraperitoneal macrophages; assay: IC50 for IL-6 production from mouse macrophages, LPS + IFN-γ (Experiment 19); type: cell-based; details: mouse macrophages, LPS and IFN-γ, 20 hours
Source text: as §4

[9] = system: PGE2 production from mouse intraperitoneal macrophages; assay: IC50 for PGE2 production from mouse macrophages, LPS + IFN-γ (Experiment 19); type: cell-based; details: Mus musculus, Macrophage, 20 h, read-out: IC50 Concentration PGE2
Source text: as §4

NHEK cells = assay: Proliferation of NHEK cells irradiated with ultraviolet rays, fluorescent intensity (Experiment 17); type: cell-based, human; details: stimulation by ultraviolet rays
Description: as §3

[10] = compared to mice applied with gel prepared by adding refined water (Experiment group 1)
[11] = supernatant of spleen cells stimulated with anti-CD3 antibody, picryl chloride-sensitized mice applied with gel

For `OC[C@H]1O[C@@H](n2cnc3c(O)ncnc32)[C@H](O)[C@@H]1O` [IN, inosine], the “Survival rate (%) of mice, 7 Hours” value ([1]; 7 hours) was 100%, the “Survival rate (%) of mice, 19 Hours” value ([1]; 19 hours) was 60% and the “Survival rate (%) of mice, 26 Hours” value ([1]; 26 hours) was 40%. For the same molecule, the “Survival rate (%) of mice, 43 Hours” value ([1]; 43 hours) was 20%, the “Skin score, 21 days after the day of sensitizing with picryl chloride” value ([2]; gel on dorsal skin twice a day (ANO 14 mg/mL, AN or IN 13 mg/mL, prednisolone 6.7 mg/mL from 3rd induction week), day 21) was 0.50 and the “Skin score, 24 days after the day of sensitizing with picryl chloride” value ([2]; gel on dorsal skin twice a day (ANO 14 mg/mL, AN or IN 13 mg/mL, prednisolone 6.7 mg/mL), day 24) was 0.50. The “Skin score, 28 days after the day of sensitizing with picryl chloride” value ([2]; gel on dorsal skin twice a day (ANO 14 mg/mL, AN or IN 13 mg/mL, prednisolone 6.7 mg/mL), day 28) was 2.50, the “Skin score, 31 days after the day of sensitizing with picryl chloride” value ([2]; gel on dorsal skin twice a day (ANO 14 mg/mL, AN or IN 13 mg/mL, prednisolone 6.7 mg/mL), day 31) was 3.22 and the “Skin score, 35 days after the day of sensitizing with picryl chloride” value ([2]; gel on dorsal skin twice a day (ANO 14 mg/mL, AN or IN 13 mg/mL, prednisolone 6.7 mg/mL), day 35) was 5.20. For the same molecule, the “Skin score, 39 days after the day of sensitizing with picryl chloride” value ([2]; gel on dorsal skin twice a day (ANO 14 mg/mL, AN or IN 13 mg/mL, prednisolone 6.7 mg/mL), day 39) was 5.66, the “Skin score, 42 days after the day of sensitizing with picryl chloride” value ([2]; gel on dorsal skin twice a day (ANO 14 mg/mL, AN or IN 13 mg/mL, prednisolone 6.7 mg/mL), day 42) was 6.00 and the “Skin score, 45 days after the day of sensitizing with picryl chloride” value ([2]; gel on dorsal skin twice a day (ANO 14 mg/mL, AN or IN 13 mg/mL, prednisolone 6.7 mg/mL), day 45) was 5.43. For the same molecule, the “production level of IL-4 of spleen cells stimulated with the anti-CD3 antibody” value [3, 10] was “showed no difference”, the “Ratio of IL-4/IFN-γ” value ([3]; spleen cells stimulated with anti-CD3 antibody, picryl chloride-sensitized mice applied with gel) was 0.70 and the “Content of IL-4” value [3, 11] was 9.3 ng/mL. For the same molecule, the “production level of IL-6 of spleen cells stimulated with the anti-CD3 antibody” value [4, 10] was “showed no difference”, the “Content of IL-6” value [4, 11] was 150 ng/mL and the “production level of IFN-γ of spleen cells stimulated with the anti-CD3 antibody” value [5, 10] was “showed no difference”. For the same molecule, the “Content of IFN-γ” value [5, 11] was 13.2 pg/mL, the IL-8 ([6]; 1 μM) was 166 pg/mL and the IL-8 ([6]; 5 μM) was 169 pg/mL. The IL-8 ([6]; 10 μM) was 140 pg/mL, the “production of IL-8 from NHEK cells induced by ultraviolet rays” value ([6]; UVB 40 mJ/cm^2, supernatant at six hours) was “did not influence” and the IC50 [7] was > 200 µM. For the same molecule, the “IC50 Concentration IL-6” value [8] was “Enhanced”, the IC50 [9] was > 200 µM and the Proliferation (NHEK cells; 1 μM) was 5643 Fluorescent intensity. For the same molecule, the Proliferation (NHEK cells; 5 μM) was 5611 Fluorescent intensity and the Proliferation (NHEK cells; 10 μM) was 5633 Fluorescent intensity.

— US9757408B2 (Hayashibara Co., Ltd., priority 2010, dated 2017)
